The values below come from patent publication US12458630B2, “Combination therapy for cancer” (The Regents of the University of California, priority 2020, dated 2025).

The test system of the assay is MIA PaCa-2 cells. Kind of assay: TMR-DEX macropinosome uptake assay. Type of assay: cell-based, human. Here is the method: Cell imaging. Immunostaining was performed as described^44. Cells were cultured on coverslips and fixed in 4% PFA for 10 min at room temperature. After washing twice in PBS, cells were incubated in PBS containing 10% FBS to block nonspecific sites of antibody adsorption. The cells were then incubated with the appropriate primary antibodies (diluted 1:100) and secondary antibodies (diluted 1:500) in PBS containing 10% FBS with or without 0.1% saponin. For cell macropinosome visualization, 24 hrs after seeding, the cells were serum starved for 18 hrs. Macropinosomes were marked using a high-molecular-mass (70 KD) TMR-Dextran (Invitrogen)-uptake assay, wherein TMR-DEX was added to serum-free medium at a final concentration of 1 mg/ml for 30 min at 37° C. At the end of the incubation period, the cells were rinsed five times in cold PBS and immediately fixed in 4% PFA. For tissue macropinosome visualization^45, fresh pancreata were cut into pieces with an approximate 5-mm cuboidal shape. A tissue section was placed in a 24-well plate and injected 150 μL of 10 mg/ml TMR-DEX solution directly into the tissue piece. Another 250 μL of diluted TMR-DEX solution were added to the well to immerse the tissue section. The plate was incubated in the dark for 15 min at room temperature. Then the tissue section was rinsed twice in PBS before embedding in O.C.T. compound in a prelabeled cryomold. Specimens were frozen on dry ice and stored at −80° C. for further processing. Immunostaining was performed as described above. Images were captured using a TCS SPE Leica confocal microscope (Leica, Germany).
In some embodiments, Immunostaining was performed as described (Su et al., 2017). Cells were cultured on coverslips and fixed in 4% PFA for 10 min at room temperature or methanol for 10 min at −20° C. After washing twice in PBS, cells were incubated in PBS containing 10% FBS to block nonspecific sites of antibody adsorption. The cells were then incubated with the appropriate primary antibodies (diluted 1:100) and secondary antibodies (diluted 1:500) in PBS containing 10% FBS with or without 0.1% saponin. For cell macropinosome visualization, 24 hrs after seeding, the cells were serum starved for 18 hrs. Macropinosomes were marked using a high-molecular-mass (70 KDa) TMR-DEX (Invitrogen)-uptake assay, wherein TMR-DEX was added to serum-free medium at a final concentration of 1 mg/ml for 30 min at 37° C. At the end of the incubation period, the cells were rinsed five times in cold PBS and immediately fixed in 4% PFA. For tissue macropinosome visualization (Lee et al., 2019), fresh pancreata were cut into pieces with an approximate 5-mm cuboidal shape. Tissue fragments were placed in a 24-well plate and injected with 150 μL of 10 mg/ml TMR-DEX solution. Another 250 μL of diluted TMR-DEX solution were added to the well to immerse the tissue fragment. The plate was incubated in the dark for 15 min at room temperature. Then the tissue fragments were rinsed twice in PBS before embedding in O.C.T. compound in a prelabeled cryomold. Specimens were frozen on dry ice and stored at −80° C. for further processing. Immunostaining was performed as described above. Images were captured using a TCS SPE Leica confocal microscope (Leica, Germany).
Quantification and statistics. To quantify the number of LC3 puncta, a total of 30 cells were recorded and analyzed using the LAS X measurement program on the TCS SPE Leica. Macropinosomes were quantified by using the ‘Analyze Particles’ feature in ImageJ (National Institutes of Health). Macropinocytic uptake index was computed by determining the total macropinosome area in relation to the total cell area for each field and then by determining the average across all the fields (at least 6 fields). These measurements were done on randomly-selected fields of view. Two-tailed unpaired Student's t test was performed for statistical analysis using GraphPad Prism software. […]

“Also recorded” adds a separate entry of the source.

Turning to `CN1CCc2cc(Nc3ncc(C4CC4)c(NCCCNC(=O)C4CCC4)n3)ccc2C1` [MRT68921], where the note is “MIA PaCa-2 cells +/- MRT68921”, the “relative macropinocytic uptake (macropinosomes)” value was “more macropinosomes; also recorded: increased macropinosomes; also recorded: enhanced”.
As for `CCN(c1nc(N)c(C(=O)N=C(N)N)nc1Cl)C(C)C` [EIPA, 5-(N-ethyl-N-isopropyl) amiloride], where the note is “parental and IKKα-KO (IKKα^Δ) MIA PaCa-2 cells, 75 μM EIPA”, the “macropinosome formation (TMR-DEX labeling)” value is recorded as “blocks macropinosome formation; also recorded: inhibited; also recorded: suppressed”.
